We go through 2 compounds from patent US20250152584A1, “NLRP3 INFLAMMASOME INHIBITOR AND USES THEREOF” (TransThera Sciences (Nanjing), Inc., priority 2022, published 2025).

In general, clearance refers to the rate of elimination divided by the concentration.

Each structure is given as a SMILES string.

Data set [1] in a line: Pharmacokinetic study in C57BL/6J mice. Type of data set: in vivo. The settings on record: mouse, plasma, C57BL/6J female mice; for Tmax: median, read-out: Tmax po (peak time of plasma concentration); for Cmax: read-out: Cmax po (peak concentration); for clearance: read-out: Cl—obs iv (clearance rate) (converted); for Vd: read-out: Vss iv (volume of distribution); for bioavailability: iv 5 mg/kg / po 10 mg/kg, read-out: F % (absolute bioavailability). The method, then:
Experimental Example 2: Pharmacokinetic Study of Compounds in C57BL/6J Mice
Compound 100, Compound 54, Compound 174, Compound 179, and Compound 253 were prepared into solutions with a mixed solvent formulated from 5% dimethyl sulfoxide, 20% (30% solutol) and 75% normal saline, respectively; the solution of each compound was administered to C57BL/6J female mice by gavage at a dose of 10 mg/kg; and the time points for blood collection were: 15 min, 30 min, 1 h, 2 h, 4 h, 6 h, 8 h and 24 h. The solution of the compound was administered to C57BL/6J female mice by intravenous bolus at a dose of 5 mg/kg, and the time points for blood collection were as follows: 5 min, 15 min, 30 min, 1 h, 2 h, 4 h, 6 h, 8 h, and 24 h.
Compound 1 was prepared into a solution with a mixed solvent formulated from 5% DME, 20% (30% solutol) and 75% normal saline; the solution of this compound was administered to C57BL/6J female mice by gavage at a dose of 10 mg/kg, and the time points for blood collection were: 15 min, 30 min, 1 h, 2 h, 4 h, 6 h, 8 h, and 24 h. The solution of the compound was administered to C57BL/6J female mice by intravenous bolus at a dose of 5 mg/kg, and the time points for blood collection were as follows: 5 min, 15 min, 30 min, 1 h, 2 h, 4 h, 6 h, 8 h, and 24 h.
Compound 195 was prepared into a solution with a mixed solvent formulated from 5% dimethyl sulfoxide, 20% PEG400 and 75% normal saline; the solution of this compound was administered to C57BL/6J female mice by gavage at a dose of 10 mg/kg; and the time points for blood collection were 15 min, 30 min, 1 h, 2 h, 4 h, 6 h, 8 h, and 24 b. The solution of the compound was administered to C57BL/6J female mice by intravenous bolus at a dose of 5 mg/kg, and the time points for blood collection were as follows: 5 min, 15 min, 30 min, 1 h, 2 b, 4 h, 6 h, 8 h, and 24 h.
Approximately 100 μL of blood was collected through the retroorbital venous plexus, and was then placed in an anticoagulant tube containing EDTA-K2. Blood samples were centrifuged at 12,000 rpm for 10 min at 4° C. to obtain plasma samples, and plasma was prepared within 30 min after blood collection. The plasma was stored in a −80° C. freezer before testing.
• 1. The samples were taken from the −80° C. freezer, thawed naturally at room temperature, and then vortexed for 5 min • 2. 10 μL of a plasma sample was precisely pipetted from different individuals into a 1.5 mL centrifuge tube. • 3. 300 μL of an internal standard working solution (the acetonitrile solution of tolbutamide) at a concentration of […] was added and mixed well. • 4. After vortexing for 5 min, the mixture was centrifuged at 12,000 rpm for 5 min. • 5. 50 μL of the supernatant was accurately pipetted into a 96-well plate preloaded with water at 150 μL/well. • 6. Vortexing was performed for 5 min for sufficient mixing, and LC-MS/MS analysis was then conducted.
(§1) The results of the concentrations of the compounds under test were output using Analyst 1.6.3 of AB. Parameters such as mean, standard deviation, coefficient of variation was calculated by Microsoft Excel (parameters directly output by Analyst 1.6.3 needed no calculation), and PK parameters were calculated by WinNonlin Phenoix 8.2 software NCA (Tmax as the median).

Data set [2] is described as follows: Pharmacokinetic study in SD male rats. The data set is classed as in vivo. The conditions noted are these: rat, plasma; for clearance: read-out: Cl—obs iv (clearance rate) (converted); for Vd: read-out: Vss iv (volume of distribution); for bioavailability: iv 1.0 mg/kg / po 5.0 mg/kg, read-out: F % (absolute bioavailability); for Tmax: median, read-out: Tmax po (peak time of plasma concentration); for Cmax: read-out: Cmax po (peak concentration). The method, then: Experimental Example 3: Pharmacokinetic Study of Compounds in SD Male Rats
Compound 54, Compound 55, Compound 174, Compound 173, and Compound 264 were prepared into solutions with a mixed solvent formulated from 5% dimethyl sulfoxide, 20% (30% solutol) and 75% normal saline, respectively; the solution of each compound was administered to SD male rats by gavage at a dose of 5.0 mg/kg; and the time points for blood collection were: 15 min, 30 min, 1 h, 2 h, 4 h, 6 h, 8 h, 10 h and 24 h. The solution of the compound was administered to male SD rats by intravenous bolus at a dose of 1.0 mg/kg, and the time points for blood collection were as follows: 5 min, 15 min, 30 min, 1 h, 2 h, 4 h, 6 h, 8 h, 10 h, and 24 h.
On the day before administration, the jugular vein of each animal was cannulated; and after administration, about 300 μL of blood was collected through the jugular vein, and then placed in an anticoagulant tube containing EDTA-K2. Blood samples were centrifuged at 12,000 rpm for 10 min at 4° C. to obtain plasma samples, and plasma was prepared within 30 min after blood collection. The plasma was stored in a −80° C. freezer before testing.
• 1. The samples were taken from the −80° C. freezer, thawed naturally at room temperature, and then vortexed for 5 min. • 2. 30 μL of a plasma sample was precisely pipetted into a 1.5 mL centrifuge tube. • 3. 750 μL of an internal standard working solution (the acetonitrile solution of tolbutamide) at a concentration of […] was added and mixed well. • 4. After vortexing for 5 min, the mixture was centrifuged at 12,000 rpm for 5 min. • 5. 50 μL of the supernatant was accurately pipetted into a 96-well plate preloaded with water at 150 μL/well. • 6. Vortexing was performed for 5 min for sufficient mixing, and LC-MS/MS analysis was then conducted.
as §1

Setting [3] is: po, gavage 10 mg/kg, read-out: AUClast po (area under the drug-time curve for 0-24 h).
Where [4] appears, read: po, gavage 10 mg/kg, read-out: tz1/2 po (terminal elimination half-life) (converted).
Where [5] appears, read: intravenous bolus 5 mg/kg, read-out: AUClast iv (area under the drug-time curve for 0-24 h).
Setting [6] is: intravenous bolus 5 mg/kg, read-out: tz1/2 iv (terminal elimination half-life) (converted).
[7] abbreviates: intravenous bolus 1.0 mg/kg, read-out: AUClast iv (area under the drug-time curve for 0-24 h).
[8] abbreviates: intravenous bolus 1.0 mg/kg, read-out: tz1/2 iv (terminal elimination half-life) (converted).
Setting [9] is: po, gavage 5.0 mg/kg, read-out: AUClast po (area under the drug-time curve for 0-24 h).
Setting [10] is: po, gavage 5.0 mg/kg, read-out: tz1/2 po (terminal elimination half-life) (converted).

With `C#Cc1ccc(-c2nnc(N[C@@H]3CCCN(C)C3)cc2C)c(O)c1` [Compound 54, (R)-5-ethynyl-2-(4-methyl-6-((1-methylpiperidin-3-yl)amino)pyridazin-3-yl)phenol], the Tmax amounted to 1 h in data set [1] (po, gavage 10 mg/kg) and 1 h in data set [2] (po, gavage 5.0 mg/kg). The AUC(0-t) in data set [1] (setting [3]) was found to be 4130 ng·h/mL; in data set [1] (setting [5]), 2400 ng·h/mL; in data set [2] (setting [7]), 749 ng·h/mL; in data set [2] (setting [9]) it was 3790 ng·h/mL. Further, the Cmax in data set [1] (po, gavage 10 mg/kg) is 820 ng/mL; in data set [2] (po, gavage 5.0 mg/kg), 442 ng/mL. Besides, the half-life is 3.04 h in data set [1] (setting [4]), 2.97 h in data set [1] (setting [6]), 2.97 h in data set [2] (setting [8]) and 3.94 h in data set [2] (setting [10]). The figures for the clearance in data set [1] (intravenous bolus 5 mg/kg) and in data set [2] (intravenous bolus 1.0 mg/kg) were 30.5 mL/min/kg and 20.2 mL/min/kg, respectively. For the same compound, the figures for the Vd in data set [1] (intravenous bolus 5 mg/kg) and in data set [2] (intravenous bolus 1.0 mg/kg) were 6.59 L/kg and 5.01 L/kg, respectively. Moreover, the bioavailability in data set [1] came out at 75.6%; in data set [2] it was 93.1%.

Regarding `CC#Cc1ccc(-c2nnc(N[C@@H]3CCCN(C)C3)cc2C)c(O)c1` [Compound 174, (R)-2-(4-methyl-6-((1-methylpiperidin-3-yl)amino)pyridazin-3-yl)-5-(prop-1-yn-1-yl)phenol], the Tmax in data set [1] (po, gavage 10 mg/kg) turned out to be 0.5 h; in data set [2] (po, gavage 5.0 mg/kg), 2 h. Besides, the AUC(0-t) in data set [1] (setting [3]) was 20100 ng·h/mL; in data set [1] (setting [5]), 8610 ng·h/mL; in data set [2] (setting [7]) it was 813 ng·h/mL; in data set [2] (setting [9]) it was 4430 ng·h/mL. Moreover, the Cmax in data set [1] (po, gavage 10 mg/kg) was 3160 ng/mL; in data set [2] (po, gavage 5.0 mg/kg) it was 465 ng/mL. Besides, the half-life in data set [1] (setting [4]) is 3.82 h; in data set [1] (setting [6]) it was 3.95 h; in data set [2] (setting [8]), 3.6 h; in data set [2] (setting [10]) it was 3.51 h. The clearance was 9.57 mL/min/kg in data set [1] (intravenous bolus 5 mg/kg) and 18.2 mL/min/kg in data set [2] (intravenous bolus 1.0 mg/kg). Moreover, the Vd is 2.64 L/kg in data set [1] (intravenous bolus 5 mg/kg) and 4.82 L/kg in data set [2] (intravenous bolus 1.0 mg/kg). Besides, the bioavailability was found to be 116% in data set [1] and 97% in data set [2].
